# Data published in the supplement of paper PMC10307832.
# Compound: COc1cc(-c2nn([C@H]3CC[C@H](N4CCN(C(C)=O)CC4)CC3)c3ncnc(N)c23)ccc1NC(=O)c1cc2ccccc2n1C + O=C(c1cc(Cc2n[nH]c(=O)c3ccccc23)ccc1F)N1CCN(C(=O)C2CC2)CC1 [Olaparib] (partner 8 µM)
# Experiment: relative viability (nuclei count vs DMSO), 5 days (fraction); higher = more cells survive
# Conditions: first compound 1.28 µM
# In short: (§1)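 Lung cancer cell lines were seeded in 1536-well plates and dosed by pin tool the next day, with either a single drug or a fixed anchor-drug dose combined with five library-drug doses (not always all listed) spaced in √10 steps. Five days later, one step fixed the cells and stained their nuclei (final 0.05% Triton X-100, 1% formaldehyde, 1 ug/ml Hoechst), and nuclei were counted on 4× images. Relative viability is the nuclei count in treated wells divided by the count in vehicle wells, and each value is the median of duplicate plates.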
row,Cell Line,relative viability
1,NCI-H1755,0.863
2,NCI-H2023,0.449
3,HCC-15,0.651
4,NCI-H1793,0.427
5,PC-14,0.343
6,EKVX,0.409
7,LC-2-ad,0.8
8,NCI-H1944,0.331
9,NCI-H1975,0.494
10,RERF-LC-KJ,0.941
11,ABC-1,0.806
12,NCI-H358,0.374
13,NCI-H650,0.468
14,PC-3 [JPC-3],1.24

# Compound: COc1cc(-c2nn([C@H]3CC[C@H](N4CCN(C(C)=O)CC4)CC3)c3ncnc(N)c23)ccc1NC(=O)c1cc2ccccc2n1C + CC(=O)c1c(C)c2cnc(Nc3ccc(N4CCNCC4)cn3)nc2n(C2CCCC2)c1=O [Palbociclib] (partner 0.5 µM)
# Experiment: as above
# Conditions: first compound 0.0128 µM
# In short: as §1
row,Cell Line,relative viability
1,NCI-H2342,0.503
2,NCI-H727,0.615
3,NCI-H1650,0.342
4,NCI-H1993,0.616
5,SW 1573,0.393
6,NCI-H838,0.222
7,LCLC-103H,0.509
8,NCI-H520,0.197
9,NCI-H2126,0.35
10,EMC-BAC-2,0.551
11,NCI-H2085,0.491
12,HCC-366,0.485
13,NCI-H1666,0.678
14,LK-2,0.698
15,NCI-H2087,0.244
16,NCI-H1648,0.263
17,SK-MES-1,0.298
18,H3255,0.324
19,COR-L23,0.324
20,COR-L 105,0.388
21,LOU-NH91,0.536
22,ChaGo-K-1,0.925
23,NCI-H2170,0.445
24,NCI-H2405,0.551

row,Cell Line,relative viability
1,HOP-62,0.503
2,HCC-44,1.04
3,NCI-H522,1.08
4,LU99A,0.419
5,BEN,0.485
6,HARA,0.268
7,SW 900,0.564
8,HCC-78,0.479
9,NCI-H322M,0.426
10,LCLC-97TM1,0.22
11,NCI-H2009,0.172
12,A-427,0.544
13,NCI-H441,0.248
14,NCI-H661,0.421
15,NCI-H1734,0.37
16,NCI-H460,0.17
17,NCI-H2347,0.461
18,SK-LU-1,0.41
19,NCI-H1395,0.656
20,201T,0.353
21,NCI-H1915,0.578
22,HCC-827,0.492
23,LXF-289,0.673
24,NCI-H23,0.47

row,Cell Line,relative viability
1,NCI-H647,0.391
2,CAL-12T,0.485
3,NCI-H1651,0.522
4,EPLC-272H,0.352
5,NCI-H2228,0.761
6,NCI-H1792,0.663
7,NCI-H1355,0.448
8,NCI-H3122,0.197
9,NCI-H1437,0.302
10,NCI-H1755,0.54
11,NCI-H2023,0.436
12,HCC-15,0.555
13,NCI-H1793,0.367
14,PC-14,0.515
15,EKVX,0.383
16,LC-2-ad,0.543
17,NCI-H1944,0.352
18,NCI-H1975,0.534
19,RERF-LC-KJ,1.08
20,ABC-1,0.646
21,NCI-H358,0.145
22,NCI-H650,0.35
23,PC-3 [JPC-3],0.588

# Same assay, conditions: first compound 0.04048 µM
row,Cell Line,relative viability
1,NCI-H2342,0.487
2,NCI-H1650,0.409
3,NCI-H1993,0.58
4,SW 1573,0.388
5,NCI-H838,0.208
6,LCLC-103H,0.474
7,NCI-H520,0.227
8,NCI-H2126,0.372
9,EMC-BAC-2,0.582
10,NCI-H2085,0.48
11,HCC-366,0.431
12,NCI-H1666,0.661
13,LK-2,0.858
14,NCI-H1648,0.275
15,SK-MES-1,0.374
16,H3255,0.316
17,COR-L23,0.253
18,COR-L 105,0.474
19,LOU-NH91,0.533
20,ChaGo-K-1,0.985
21,NCI-H2170,0.396
22,NCI-H2405,0.396
23,HOP-62,0.468

row,Cell Line,relative viability
1,HCC-44,0.975
2,NCI-H522,0.864
3,LU99A,0.435
4,BEN,0.466
5,HARA,0.241
6,SW 900,0.584
7,HCC-78,0.433
8,NCI-H322M,0.516
9,LCLC-97TM1,0.194
10,NCI-H2009,0.148
11,A-427,0.554
12,NCI-H441,0.167
13,NCI-H661,0.436
14,NCI-H1734,0.332
15,NCI-H460,0.133
16,NCI-H2347,0.43
17,SK-LU-1,0.369
18,NCI-H1395,0.647
19,201T,0.402
20,NCI-H1915,0.441
21,HCC-827,0.455
22,LXF-289,0.648
23,NCI-H23,0.519

row,Cell Line,relative viability
1,NCI-H647,0.382
2,CAL-12T,0.277
3,NCI-H1651,0.539
4,EPLC-272H,0.327
5,NCI-H2228,0.672
6,NCI-H1792,0.626
7,NCI-H1355,0.402
8,NCI-H1437,0.326
9,NCI-H1755,0.467
10,NCI-H2023,0.358
11,HCC-15,0.663
12,NCI-H1793,0.342
13,PC-14,0.503
14,EKVX,0.47
15,LC-2-ad,0.508
16,NCI-H1944,0.32
17,NCI-H1975,0.541
18,RERF-LC-KJ,1.19
19,ABC-1,0.84
20,NCI-H358,0.137
21,NCI-H650,0.385
22,PC-3 [JPC-3],0.621

# Same assay, conditions: first compound 0.128 µM
row,Cell Line,relative viability
1,NCI-H2342,0.517
2,NCI-H727,0.553
3,NCI-H1650,0.306
4,NCI-H1993,0.617
5,SW 1573,0.172
6,NCI-H838,0.216
7,LCLC-103H,0.433
8,NCI-H520,0.206
9,NCI-H2126,0.344
10,EMC-BAC-2,0.528
11,NCI-H2085,0.455
12,HCC-366,0.403
13,NCI-H1666,0.6
14,LK-2,0.834
15,NCI-H2087,0.237
16,NCI-H1648,0.242
17,SK-MES-1,0.319
18,H3255,0.349
19,COR-L23,0.313
20,COR-L 105,0.4
21,LOU-NH91,0.529
22,ChaGo-K-1,0.873
23,NCI-H2170,0.383
24,NCI-H2405,0.486

row,Cell Line,relative viability
1,HOP-62,0.411
2,HCC-44,0.972
3,NCI-H522,0.822
4,LU99A,0.389
5,BEN,0.435
6,HARA,0.246
7,SW 900,0.538
8,HCC-78,0.465
9,NCI-H322M,0.434
10,LCLC-97TM1,0.241
11,NCI-H2009,0.219
12,A-427,0.551
13,NCI-H441,0.228
14,NCI-H661,0.42
15,NCI-H1734,0.335
16,NCI-H460,0.148
17,NCI-H2347,0.392
18,SK-LU-1,0.357
19,NCI-H1395,0.589
20,201T,0.337
21,NCI-H1915,0.495
22,HCC-827,0.484
23,LXF-289,0.549
24,NCI-H23,0.508

row,Cell Line,relative viability
1,NCI-H647,0.4
2,CAL-12T,0.459
3,NCI-H1651,0.513
4,EPLC-272H,0.337
5,NCI-H2228,0.772
6,NCI-H1792,0.657
7,NCI-H1355,0.416
8,NCI-H3122,0.169
9,NCI-H1437,0.281
10,NCI-H1755,0.458
11,NCI-H2023,0.318
12,HCC-15,0.839
13,NCI-H1793,0.261
14,PC-14,0.486
15,EKVX,0.357
16,LC-2-ad,0.502
17,NCI-H1944,0.363
18,NCI-H1975,0.513
19,RERF-LC-KJ,1.07
20,ABC-1,0.391
21,NCI-H358,0.126
22,NCI-H650,0.3
23,PC-3 [JPC-3],0.529

# Same assay, conditions: first compound 1.28 µM
row,Cell Line,relative viability
1,NCI-H2342,0.514
2,NCI-H727,0.583
3,NCI-H1650,0.268
4,NCI-H1993,0.605
5,SW 1573,0.347
6,NCI-H838,0.181
7,LCLC-103H,0.503
8,NCI-H520,0.12
9,NCI-H2126,0.329
10,EMC-BAC-2,0.514
11,NCI-H2085,0.441
12,HCC-366,0.256
13,NCI-H1666,0.622
14,LK-2,0.518
15,NCI-H2087,0.222
16,NCI-H1648,0.333
17,SK-MES-1,0.277
18,H3255,0.318
19,COR-L23,0.24
20,COR-L 105,0.302
21,LOU-NH91,0.454
22,ChaGo-K-1,0.668
23,NCI-H2170,0.327
24,NCI-H2405,0.269

row,Cell Line,relative viability
1,HOP-62,0.432
2,HCC-44,1.29
3,NCI-H522,0.778
4,LU99A,0.377
5,BEN,0.457
6,HARA,0.185
7,SW 900,0.353
8,HCC-78,0.381
9,NCI-H322M,0.394
10,LCLC-97TM1,0.191
11,NCI-H2009,0.179
12,A-427,0.521
13,NCI-H441,0.152
14,NCI-H661,0.419
15,NCI-H1734,0.276
16,NCI-H460,0.153
17,NCI-H2347,0.416
18,SK-LU-1,0.249
19,NCI-H1395,0.497
20,201T,0.294
21,NCI-H1915,0.44
22,HCC-827,0.218
23,LXF-289,0.706
24,NCI-H23,0.4

row,Cell Line,relative viability
1,NCI-H647,0.216
2,CAL-12T,0.24
3,NCI-H1651,0.49
4,EPLC-272H,0.301
5,NCI-H2228,0.522
6,NCI-H1792,0.636
7,NCI-H1355,0.415
8,NCI-H3122,0.189
9,NCI-H1437,0.283
10,NCI-H1755,0.402
11,NCI-H2023,0.293
12,HCC-15,0.705
13,NCI-H1793,0.239
14,PC-14,0.433
15,EKVX,0.271
16,LC-2-ad,0.511
17,NCI-H1944,0.203
18,NCI-H1975,0.23
19,RERF-LC-KJ,0.972
20,ABC-1,0.469
21,NCI-H358,0.115
22,NCI-H650,0.339
23,PC-3 [JPC-3],0.676
